Laboratory results taken from patent US20220056037A1 (SPV THERAPEUTICS INC., priority 2018, published 2022).

Columns and labels:
Assay in all cases: Inhibition assay, microfluidic LabChip (Nanosyn)
Assay type in all cases: biochemical
[1] = target: T1, CDK4-CYCLIND1 (Homo sapiens, UniProt P11802); conditions: Table 2; ATP 200 μM; read-out: CDK4 IC50
T1 construct: purchased Invitrogen
Method: (§1) The reaction was terminated by the addition of EDTA. The plates were analyzed using a Caliper LabChip 3000.
(§2) Additional inhibition assays were performed as described above.

[2] = target: T2, CDK6-CYCLIND3 (Homo sapiens, UniProt Q00534); conditions: Table 2; ATP 300 μM; read-out: CDK6 IC50
T2 construct: purchased Carna
Method: as §1, §2

[3] = target: T3, CDK9-CYCLINT1 (Homo sapiens, UniProt P50750); conditions: Table 3a;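 also: values are IC50 from a concentration-response series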
T3 construct: purchased Carna
Method: as §1, §2

[4] = target: CDK7 CyclinH (Homo sapiens, UniProt P50613);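 also: values are IC50 from a concentration-response series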
Method: as §1, §2

[5] = target: T4, CDK2-CYCLINA (Homo sapiens, UniProt P24941);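 also: values are IC50 from a concentration-response series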
T4 construct: purchased Millipore
Method: as §1, §2

T1 sequence (P11802 whole entry): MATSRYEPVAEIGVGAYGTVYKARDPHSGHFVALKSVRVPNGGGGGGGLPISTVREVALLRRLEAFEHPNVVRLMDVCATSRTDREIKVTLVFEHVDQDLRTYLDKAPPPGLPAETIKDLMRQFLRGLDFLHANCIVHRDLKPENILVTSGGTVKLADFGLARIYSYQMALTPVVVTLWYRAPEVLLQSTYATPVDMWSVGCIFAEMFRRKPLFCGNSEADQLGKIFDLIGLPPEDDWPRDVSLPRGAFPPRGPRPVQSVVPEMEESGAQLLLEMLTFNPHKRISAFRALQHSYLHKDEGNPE
T1 sequence (P24385 whole entry partner): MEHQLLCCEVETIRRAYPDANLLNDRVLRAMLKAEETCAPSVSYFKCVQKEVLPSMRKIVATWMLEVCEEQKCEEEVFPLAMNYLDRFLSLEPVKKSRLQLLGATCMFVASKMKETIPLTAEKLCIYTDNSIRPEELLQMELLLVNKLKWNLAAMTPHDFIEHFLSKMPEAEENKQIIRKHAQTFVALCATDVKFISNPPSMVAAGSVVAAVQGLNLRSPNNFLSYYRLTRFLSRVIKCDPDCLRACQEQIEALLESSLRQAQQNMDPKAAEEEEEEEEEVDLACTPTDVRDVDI
Sequence of CDK7 CyclinH (P50613 whole entry): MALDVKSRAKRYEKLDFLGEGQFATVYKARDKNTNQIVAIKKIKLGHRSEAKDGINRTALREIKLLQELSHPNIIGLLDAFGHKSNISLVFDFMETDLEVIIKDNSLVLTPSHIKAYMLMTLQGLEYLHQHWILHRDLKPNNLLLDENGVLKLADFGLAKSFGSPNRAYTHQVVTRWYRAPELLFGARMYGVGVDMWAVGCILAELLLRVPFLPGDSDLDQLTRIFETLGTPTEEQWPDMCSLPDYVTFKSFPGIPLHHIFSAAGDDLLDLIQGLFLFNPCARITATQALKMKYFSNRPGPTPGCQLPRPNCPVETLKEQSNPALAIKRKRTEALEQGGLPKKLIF
Sequence of CDK7 CyclinH (P51946 whole entry partner): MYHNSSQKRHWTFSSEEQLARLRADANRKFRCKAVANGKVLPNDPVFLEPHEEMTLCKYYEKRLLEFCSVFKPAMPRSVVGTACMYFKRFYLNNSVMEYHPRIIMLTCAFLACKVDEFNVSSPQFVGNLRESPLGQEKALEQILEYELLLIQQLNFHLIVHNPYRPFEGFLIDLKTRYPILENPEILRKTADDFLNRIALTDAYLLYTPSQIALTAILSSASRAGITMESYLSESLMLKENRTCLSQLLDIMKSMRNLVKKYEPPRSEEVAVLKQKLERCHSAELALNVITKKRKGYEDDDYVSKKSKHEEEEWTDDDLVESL
Sequence of CDK7 CyclinH (P51948 whole entry partner): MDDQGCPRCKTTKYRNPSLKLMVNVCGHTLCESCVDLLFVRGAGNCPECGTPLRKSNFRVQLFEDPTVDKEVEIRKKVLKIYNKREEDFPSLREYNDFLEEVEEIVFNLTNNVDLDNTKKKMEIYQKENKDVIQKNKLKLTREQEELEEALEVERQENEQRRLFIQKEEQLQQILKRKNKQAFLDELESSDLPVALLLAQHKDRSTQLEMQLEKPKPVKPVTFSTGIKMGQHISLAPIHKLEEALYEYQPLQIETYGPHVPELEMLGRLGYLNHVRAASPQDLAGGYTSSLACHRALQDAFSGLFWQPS
T2 sequence (Q00534 whole entry): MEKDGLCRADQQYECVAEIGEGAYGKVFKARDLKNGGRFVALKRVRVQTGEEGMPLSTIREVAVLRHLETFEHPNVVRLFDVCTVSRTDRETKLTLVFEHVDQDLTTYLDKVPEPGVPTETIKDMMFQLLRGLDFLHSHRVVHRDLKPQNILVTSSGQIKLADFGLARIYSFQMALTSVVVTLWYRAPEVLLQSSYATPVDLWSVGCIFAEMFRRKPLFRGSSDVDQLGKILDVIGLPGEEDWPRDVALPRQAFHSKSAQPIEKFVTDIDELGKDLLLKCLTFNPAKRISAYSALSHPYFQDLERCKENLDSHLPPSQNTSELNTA
T2 sequence (P30281 whole entry partner): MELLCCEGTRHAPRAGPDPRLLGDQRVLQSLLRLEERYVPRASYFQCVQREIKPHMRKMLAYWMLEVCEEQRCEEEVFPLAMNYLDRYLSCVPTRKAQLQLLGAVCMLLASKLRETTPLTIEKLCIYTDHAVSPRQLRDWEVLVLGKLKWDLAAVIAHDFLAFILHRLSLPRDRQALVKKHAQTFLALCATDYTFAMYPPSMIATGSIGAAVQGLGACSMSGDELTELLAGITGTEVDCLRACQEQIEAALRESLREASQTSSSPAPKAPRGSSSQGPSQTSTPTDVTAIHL
T3 sequence (P50750 whole entry): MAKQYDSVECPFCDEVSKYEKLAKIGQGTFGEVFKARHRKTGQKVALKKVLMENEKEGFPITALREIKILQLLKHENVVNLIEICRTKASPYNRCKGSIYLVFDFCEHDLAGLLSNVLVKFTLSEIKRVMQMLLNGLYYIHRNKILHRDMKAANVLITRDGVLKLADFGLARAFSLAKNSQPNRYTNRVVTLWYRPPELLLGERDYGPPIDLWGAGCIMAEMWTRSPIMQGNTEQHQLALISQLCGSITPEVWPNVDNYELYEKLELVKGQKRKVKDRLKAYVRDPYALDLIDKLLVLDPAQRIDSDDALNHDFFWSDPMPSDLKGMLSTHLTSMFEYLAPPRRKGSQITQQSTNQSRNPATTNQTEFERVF
T3 sequence (O60563 whole entry partner): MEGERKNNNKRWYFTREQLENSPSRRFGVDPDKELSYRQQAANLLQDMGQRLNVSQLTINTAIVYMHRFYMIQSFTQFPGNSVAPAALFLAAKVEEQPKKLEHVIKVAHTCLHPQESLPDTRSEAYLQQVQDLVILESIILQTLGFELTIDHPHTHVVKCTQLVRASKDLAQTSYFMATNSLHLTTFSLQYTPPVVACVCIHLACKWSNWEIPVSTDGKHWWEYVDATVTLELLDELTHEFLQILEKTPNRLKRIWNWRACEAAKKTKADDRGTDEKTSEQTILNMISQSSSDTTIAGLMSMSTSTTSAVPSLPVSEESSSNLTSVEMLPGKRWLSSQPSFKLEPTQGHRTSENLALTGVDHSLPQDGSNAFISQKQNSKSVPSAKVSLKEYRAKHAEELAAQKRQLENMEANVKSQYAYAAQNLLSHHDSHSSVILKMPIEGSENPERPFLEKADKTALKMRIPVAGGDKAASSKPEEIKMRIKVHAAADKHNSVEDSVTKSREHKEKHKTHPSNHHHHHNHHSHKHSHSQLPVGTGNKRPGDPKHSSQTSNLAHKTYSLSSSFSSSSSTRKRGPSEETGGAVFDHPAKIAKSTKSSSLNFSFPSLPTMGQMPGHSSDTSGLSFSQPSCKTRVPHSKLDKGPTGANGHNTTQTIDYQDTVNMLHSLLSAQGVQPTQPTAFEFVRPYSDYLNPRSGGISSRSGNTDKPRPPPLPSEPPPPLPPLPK

IC50 [1] [nM]	IC50 [2] [nM]	Compound	further results
41.7	82	CN(C)C(=O)c1c(F)c2cnc(Nc3ccc(C4=CCNCC4)cn3)nc2n1C1CCCC1 [Compound A22, 7-cyclopentyl-5-fluoro-N,N-dimethyl-2-((1′,2′,3′,6′-tetrahydro-[3,4′-bipyridin]-6-yl)amino)-7H-pyrrolo[2,3-d]pyrimidine-6-carboxamide]	
15.4	45.3	CN1CCN(c2ccc(Nc3ncc4c(F)c(C(=O)N(C)C)n(C5CCCC5)c4n3)cc2)CC1 [Compound A19, 7-cyclopentyl-5-fluoro-N,N-dimethyl-2-((4-(4-methylpiperazin-1-yl)phenyl)amino)-7H-pyrrolo[2,3-d]pyrimidine-6-carboxamide]	
> 30000	> 30000	CN(C)C(=O)c1c(F)c2cnc(N3CCN(c4ccc(C#N)cc4)CC3)nc2n1C1CCCC1 [Compound A29, 2-(4-(4-cyanophenyl)piperazin-1-yl)-7-cyclopentyl-5-fluoro-N,N-dimethyl-7H-pyrrolo[2,3-d]pyrimidine-6-carboxamide]	
2.94	7.68	CN(C)C(=O)c1cc2cnc(Nc3ccc(N4CCNCC4)cc3)nc2n1C12CC(C1)C2 [Compound A16, 7-(bicyclo[1.1.1]pentan-1-yl)-N,N-dimethyl-2-((4-(piperazin-1-yl)phenyl)amino)-7H-pyrrolo[2,3-d]pyrimidine-6-carboxamide]	
1.95	10.1	CN(C)C(=O)c1cc2cnc(Nc3ccc(OCCN4CCCC4)c(F)c3)nc2n1C1CCCC1 [Compound A32, 7-cyclopentyl-2-((3-fluoro-4-(2-(pyrrolidin-1-yl)ethoxy)phenyl)amino)-N,N-dimethyl-7H-pyrrolo[2,3-d]pyrimidine-6-carboxamide]	
18.9	34.9	CN(C)CCOc1ccc(Nc2ncc3cc(C(=O)N(C)C)n(C4CCCC4)c3n2)nc1 [Compound A4, 7-cyclopentyl-2-((5-(2-(dimethylamino)ethoxy)pyridin-2-yl)amino)-N,N-dimethyl-7H-pyrrolo[2,3-d]pyrimidine-6-carboxamide]	
48	64.5	CN(C)CCOc1ccc(Nc2ncc3c(F)c(C(=O)N(C)C)n(C4CCCC4)c3n2)nc1 [Compound A3, 7-cyclopentyl-2-((5-(2-(dimethylamino)ethoxy)pyridin-2-yl)amino)-5-fluoro-N,N-dimethyl-7H-pyrrolo[2,3-d]pyrimidine-6-carboxamide]	
3.88	12	CC(C)N1CCN(c2ccc(Nc3ncc4cc(C(=O)N(C)C)n(C5CCCC5)c4n3)cc2F)CC1 [Compound A11, 7-cyclopentyl-2-((3-fluoro-4-(4-isopropylpiperazin-1-yl)phenyl)amino)-N,N-dimethyl-7H-pyrrolo[2,3-d]pyrimidine-6-carboxamide]	
8.17	32.5	CC(C)N1CCN(c2ccc(Nc3ncc4c(F)c(C(=O)N(C)C)n(C5CCCC5)c4n3)cc2)CC1 [Compound A36, 7-cyclopentyl-5-fluoro-2-((4-(4-isopropylpiperazin-1-yl)phenyl)amino)-N,N-dimethyl-7H-pyrrolo[2,3-d]pyrimidine-6-carboxamide]	

More lines, now with the values behind:

Compound	IC50 [1] [nM]	IC50 [2] [nM]	further results
CN1CCN(c2ccc(Nc3ncc4cc(C(=O)N(C)C)n(C56CC(C5)C6)c4n3)cc2F)CC1 [Compound A40, 7-(bicyclo[1.1.1]pentan-1-yl)-2-((3-fluoro-4-(4-methylpiperazin-1-yl)phenyl)amino)-N,N-dimethyl-7H-pyrrolo[2,3-d]pyrimidine-6-carboxamide]	5.16	17.3	
Cc1cc(Nc2ncc3cc(C(=O)N(C)C)n(C45CC(C4)C5)c3n2)ccc1N1CCN(C(C)C)CC1 [Compound A31, 7-(bicyclo[1.1.1]pentan-1-yl)-2-((4-(4-isopropylpiperazin-1-yl)-3-methylphenyl)amino)-N,N-dimethyl-7H-pyrrolo[2,3-d]pyrimidine-6-carboxamide]	9	33.7	
CN(C)C(=O)c1cc2cnc(Nc3ccc(N4CCN5CCC4CC5)cn3)nc2n1C1CCCC1 [Compound A9, 2-((5-(1,4-diazabicyclo[3.2.2]nonan-4-yl)pyridin-2-yl)amino)-7-cyclopentyl-N,N-dimethyl-7H-pyrrolo[2,3-d]pyrimidine-6-carboxamide]	21	54.9	
CN(C)C(=O)c1cc2cnc(Nc3ccc(N4CCOCC4)c(F)c3)nc2n1C12CC(C1)C2 [Compound A42, 7-(bicyclo[1.1.1]pentan-1-yl)-2-((3-fluoro-4-morpholinophenyl)amino)-N,N-dimethyl-7H-pyrrolo[2,3-d]pyrimidine-6-carboxamide]	15	43.4	
Cc1cc(Nc2ncc3c(F)c(C(=O)N(C)C)n(C4CCCC4)c3n2)ccc1N1CCN(C(C)C)CC1 [Compound A34, 7-cyclopentyl-5-fluoro-2-((4-(4-isopropylpiperazin-1-yl)-3-methylphenyl)amino)-N,N-dimethyl-7H-pyrrolo[2,3-d]pyrimidine-6-carboxamide]	26.2	103	
CC(C)N1CC=C(c2ccc(Nc3ncc4cc(C(=O)N(C)C)n(C56CC(C5)C6)c4n3)nc2)CC1 [Compound A43, 7-(bicyclo[1.1.1]pentan-1-yl)-2-((1′-isopropyl-1′,2′,3′,6′-tetrahydro-[3,4′-bipyridin]-6-yl)amino)-N,N-dimethyl-7H-pyrrolo[2,3-d]pyrimidine-6-carboxamide]	35.6	32.9	
CN(C)C(=O)c1cc2cnc(NC3CCN(S(C)(=O)=O)CC3)nc2n1C12CC(C1)C2 [Compound A75, 7-(bicyclo[1.1.1]pentan-1-yl)-N,N-dimethyl-2-((1-(methylsulfonyl)piperidin-4-yl)amino)-7H-pyrrolo[2,3-d]pyrimidine-6-carboxamide]			IC50 [3]: 11.4 nM; IC50 ([4]; Table 3a): 8130 nM; IC50 ([4]; Table 3b): 8130 nM
CN(C)C(=O)c1cc2cnc(Nc3ccc(N4CC5(CNC5)C4)c(F)c3)nc2n1C12CC(C1)C2 [Compound A47, 7-(bicyclo[1.1.1]pentan-1-yl)-2-((3-fluoro-4-(2,6-diazaspiro[3.3]heptan-2-yl)phenyl)amino)-N,N-dimethyl-7H-pyrrolo[2,3-d]pyrimidine-6-carboxamide]	5.22	16.5	
CN(C)C(=O)c1c(F)c2cnc(Nc3ccc(OCCN4CCCC4)c(F)c3)nc2n1C1CCCC1 [Compound A33, 7-cyclopentyl-5-fluoro-2-((3-fluoro-4-(2-(pyrrolidin-1-yl)ethoxy)phenyl)amino)-N,N-dimethyl-7H-pyrrolo[2,3-d]pyrimidine-6-carboxamide]	10.1	37.4	
CN(C)C(=O)c1cc2cnc(Nc3ccc(N4CCN(C#N)CC4)cn3)nc2n1C1CCCC1 [Compound A23, 2-((5-(4-cyanopiperazin-1-yl)pyridin-2-yl)amino)-7-cyclopentyl-N,N-dimethyl-7H-pyrrolo[2,3-d]pyrimidine-6-carboxamide]	34.3	97	
CN(C)C(=O)c1cc2cnc(Nc3ccc(N4CCNCC4)c(F)c3)nc2n1C12CC(C1)C2 [Compound A85, 7-(bicyclo[1.1.1]pentan-1-yl)-2-((3-fluoro-4-(piperazin-1-yl)phenyl)amino)-N,N-dimethyl-7H-pyrrolo[2,3-d]pyrimidine-6-carboxamide]			IC50 ([5]; Table 3a): 162 nM; IC50 ([5]; Table 3b): 162 nM; IC50 ([4]; Table 3a): 1140 nM; IC50 ([4]; Table 3b): 1140 nM
